Where two headings read alike, the source gives them in different places.

The inhibition is the change of the read-out against control, counted positive when it falls. High values mean a strong effect, low ones a weak effect.

For test [1], the system named is Secreted IL-1β in THP-1 cells. The test can be described thus: Interleukin-1β inhibitory activity in human monocytic cells THP-1 (ELISA). The test is classed as cell-based. Particulars: compound 100 nM, PMA-differentiated THP-1, LPS 10 μg/ml then 5 mM ATP, 24 h. A digest of the protocol:
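THP-1 cells were differentiated with 1 μM PMA for 24 h, primed with 10 μg/ml LPS in serum-free medium for 24 h, then given compound at 100 nM for 1 h before 5 mM ATP for 24 h. Secreted IL-1β was measured by ELISA, and inhibition was binned a ≥50%, b 30–<50%, c 10–<30%, d <10%.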

The target in test [2] is T1, recombinant human Caspase-1 (Homo sapiens, UniProt P29466).
T1 construct: purchased Enzo life science
T1 sequence (P29466 120-297 limits assumed): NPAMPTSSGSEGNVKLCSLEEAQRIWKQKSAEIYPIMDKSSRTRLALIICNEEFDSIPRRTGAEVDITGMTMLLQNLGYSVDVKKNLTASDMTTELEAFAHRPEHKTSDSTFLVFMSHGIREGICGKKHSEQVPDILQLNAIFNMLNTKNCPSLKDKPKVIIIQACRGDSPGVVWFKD
T1 sequence (P29466 317-404 limits assumed): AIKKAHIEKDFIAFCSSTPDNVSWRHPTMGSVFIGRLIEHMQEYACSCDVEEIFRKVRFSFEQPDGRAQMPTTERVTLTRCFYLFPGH
Kind of test: Caspase-1 inhibitory activity, fluorescent substrate Ac-YVAD-AFC. The test is classed as biochemical. Put shortly: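 Inactivation kinetics with 1 unit enzyme and 50 μM Ac-YVAD-AFC in 50 mM HEPES pH 8.0, 50 mM KCl, 200 mM NaCl, 10 mM DTT, 0.1% CHAPS, at various compound concentrations. Rate followed over time at Ex/Em 400/505 nm. kobs/[I] binned: A ≥20, B 10–<20, C 1–<10, D <1.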

The test system of test [3] is Jurkat cells. The test can be described thus: Apoptosis inhibition activity in human T-lymphocyte cells Jurkat (anti-FAS antibody, intracellular ATP). The test is classed as cell-based. The following applies: compound 50 nM, 1 μg/ml anti-FAS antibody 24 h, ATP luminescence. How it is done: To evaluate the effect of the compound of the present invention on apoptosis, Jurkat (ATCC) cells were treated with anti-FAS antibody CH-11 (Merck) to induce apoptosis via the Fas (CD95) receptor, which was assessed by the amount of intracellular ATP.
Jurkat cells were cultured in RPMI 1640 growth medium comprising 10% FBS and antibiotics (100 U/ml Penicillin, 0.1 mg/ml Streptomycin) under 37° C., 5% CO2 conditions. Cultured cells were seeded in growth medium to a concentration of 8×10^4 cells/well in 96-well plates (SPL), pretreated with compound at a concentration of 50 nM for 1 hour, and then treated with 1 μg/ml anti-FAS antibody for 24 hours in an incubator. After 24 h, an ATP lite Luminescence assay kit (PerkinElmer) was used to measure ATP and luminescence was measured at 580 nm using a CLARIOstar Plus spectrometer. If the inhibitory activity is 30% or more, it is denoted as a′, if it is 20% or more but less than 30%, it is denoted as b′, if it is 10% or more but less than 20%, it is denoted as c′, and if it is less than 10%, it is denoted as d′.

Setting [4] is: pH 8, 1 unit recombinant human Caspase-1, 50 μM Ac-YVAD-AFC, read-out: kobs/[I] Caspase-1.

On to `CCC(C(=O)NC(CC(=O)O)C(=O)CF)N1Cc2ccc(-c3cccc4ccccc34)cc2C1=O` (stereo not drawn) [Compound 2, 5-fluoro-3-(2-(6-(naphthalen-1-yl)-1-oxoisoindolin-2-yl)butanamido)-4-oxopentanoic acid], for which the inhibition at 0.1 µM in test [1] was 30 to 50%. Moreover, the kinact/KI in test [2] (setting [4]) is 0.0167 to 0.167 M⁻¹ s⁻¹. For the same molecule, the inhibition at 0.05 µM in test [3] is 10 to 20%.

The molecule `CCC(C(=O)NC(CC(=O)O)C(=O)CF)N1Cc2ccc(-c3ccc(C(C)=O)cc3)cc2C1=O` (stereo not drawn) [Compound 18, 3-(2-(6-(4-acetylphenyl)-1-oxoisoindolin-2-yl)butanamido)-5-fluoro-4-oxopentanoic acid] displayed an inhibition at 0.1 µM in test [1] not below 50%. For the same molecule, the kinact/KI in test [2] (setting [4]) fell in the range of 0.0167 to 0.167 M⁻¹ s⁻¹. The inhibition at 0.05 µM in test [3] was 10 to 20%.

Take `CC[C@@H](C(=O)NC(CC(=O)O)C(=O)CF)N1Cc2cc(-c3coc4ccccc34)ccc2C1=O` (stereo partly drawn) [Compound 57, 3-((S)-2-(5-(benzofuran-3-yl)-1-oxoisoindolin-2-yl)butanamido)-5-fluoro-4-oxopentanoic acid]: the inhibition at 0.1 µM in test [1] lay within 10 to 30%. Further, the kinact/KI in test [2] (pH 8, read-out: kobs/[I] Caspase-1) lay in the range of 0.0167 to 0.167 M⁻¹ s⁻¹. In test [3], the inhibition at 0.05 µM was in the range of 20 to 30%.

In test [1], `CC[C@@H](C(=O)NC(CC(=O)O)C(=O)CF)N1Cc2ccc(-c3ccc4c(c3)OCCO4)cc2C1=O` (stereo partly drawn) [Compound 55, 3-((S)-2-(6-(2,3-dihydrobenzo[b][1,4]dioxin-6-yl)-1-oxoisoindolin-2-yl)butanamido)-5-fluoro-4-oxopentanoic acid] came in with an inhibition at 0.1 µM of 30 to 50%. The kinact/KI in test [2] (setting [4]) was 0.0167 to 0.167 M⁻¹ s⁻¹. The inhibition at 0.05 µM in test [3] was not below 30%.

In test [1], `CCC(C(=O)NC(CC(=O)O)C(=O)CF)N1Cc2ccc(N3CCN(S(C)(=O)=O)CC3)cc2C1=O` (stereo not drawn) [Compound 6, 5-fluoro-3-(2-(6-(4-(methylsulfonyl)piperazin-1-yl)-1-oxoisoindolin-2-yl)butanamido)-4-oxopentanoic acid] returned an inhibition at 0.1 µM of 10 to 30%. The kinact/KI in test [2] (setting [4]) is less than 0.0167 M⁻¹ s⁻¹. Further, the inhibition at 0.05 µM in test [3] lay within 10 to 20%.

In the case of `CCC(C(=O)NC(CC(=O)O)C(=O)CF)N1Cc2ccc(Br)cc2C1=O` (stereo not drawn) [Compound 9, 3-(2-(6-bromo-1-oxoisoindolin-2-yl)butanamido)-5-fluoro-4-oxopentanoic acid], in test [1], the inhibition at 0.1 µM lay in the range of 30 to 50%. The kinact/KI in test [2] (setting [4]) is 0.0167 to 0.167 M⁻¹ s⁻¹. Also, the inhibition at 0.05 µM in test [3] is not below 30%.

Molecule `CC[C@@H](C(=O)N[C@@H](CC(=O)O)C(=O)COc1c(F)c(F)cc(F)c1F)N1Cc2ccc(-c3coc4ccccc34)cc2C1=O` [Compound 50, (S)-3-((S)-2-(6-(benzofuran-3-yl)-1-oxoisoindolin-2-yl)butanamido)-4-oxo-5-(2,3,5,6-tetrafluorophenoxy)pentanoic acid] showed an inhibition at 0.1 µM in test [1] not below 50%. The kinact/KI in test [2] (setting [4]) is 0.167 to 0.333 M⁻¹ s⁻¹. Moreover, in test [3], the inhibition at 0.05 µM was not below 30%.

For `CC[C@@H](C(=O)N[C@H](CC(=O)O)C(=O)COc1c(F)c(F)cc(F)c1F)N1Cc2ccc(-c3ccc4c(c3)OCCO4)cc2C1=O` [Compound 54, (R)-3-((S)-2-(6-(2,3-dihydrobenzo[b][1,4]dioxin-6-yl)-1-oxoisoindolin-2-yl)butanamido)-4-oxo-5-(2,3,5,6-tetrafluorophenoxy)pentanoic acid], the inhibition at 0.1 µM in test [1] is 30 to 50%. Moreover, the kinact/KI in test [2] (setting [4]) is 0.0167 to 0.167 M⁻¹ s⁻¹. Also, the inhibition at 0.05 µM in test [3] was less than 10%.

(Values after patent US20250109135A1, “NOVEL ISOINDOLINONE DERIVATIVE COMPOUNDS AS CASPASE INHIBITORS” (INNOVO THERAPEUTICS INC., priority 2022, published 2025).)
